Data: US5939098A, “Cancer treatment with temozolomide” (Schering Corporation, priority 1997, dated 1999)

Key:
advanced melanoma [1] = details: patients with advanced melanoma; Journal of Clinical Oncology, Vol 13, No. 4, 1995, pp 910-913; cited from earlier work
[2] = side effects of temozolomide administration; assay type: in vivo, patient; details: can be alleviated by an anti-emetic
Description: It is preferred that the anti-emetic Ondansetron be given p.o. in a dose of about 8 mg about 30 minutes before temozolomide administration. Of course other anti-emetics such as Hasaldol, Benadryl, and Ativan may also be used as needed.

[3] = set-up: species or system patient; details: human, in vivo
Description: Prior to this invention it was generally believed that administering temozolomide to a patient having food in their stomach or to a patient who consumed food too soon before or after administering of the temozolomide would interfere with the bioiavailability of the temozolomide. A fasting of about 8 hours, before administering of temozolomide and 4 hours after receiving temozolomide was believed necessary. Since two twelve-hour fasting periods per day would obviously be unacceptable, it was believed that temozolomide could be administered a maximum of once per day. […] Therefore long fasting periods before and after administration of temozolomide are not necessary. Dosing with temozolomide more than once per day may improve the effectiveness of the treatment. This is so because increasing the frequency of dosing may deplete the O^6 -aklylguanine DNA alkyltransferase more effectively and maintain the depletion of this repair enzyme, resulting therefore in better effectiveness of the drug.

advanced melanoma [4] = details: patients having advanced melanoma; Newlands ES, et al. Br J Cancer 65 (2), 1992; cited from earlier work

Cn1nnc2c(C(N)=O)ncn2c1=O [temozolomide, 3,4-dihydro-3-methyl-4-oxoimidazo-[5,1-d]1,2,3,4-tetrazin-8-carboximide]
clinical response achieved, % of patients (advanced melanoma [1]): 21% | common, but tolerable side effect [2]: nausea and vomiting | Area Under Curve (AUC) for those fed as % of AUC for those fasted [3]: about 90% | clinical responses achieved, % of patients (advanced melanoma [4]): 17%
